Results taken from US6855843B2, “Inhibitors of α4 mediated cell adhesion” (Tanabe Seiyaku Co., Ltd., priority 1998, dated 2005).

Legend:
[1] = target: T1, α4β7 (adhesion of RPMI cells to CS-1) (Homo sapiens, UniProt P13612+P26010); test: RPMI-CS-1 cell adhesion assay; assay type: cell-based; conditions: adhesion of RPMI B-cell line (expresses α4β7) to CS-1 peptide coated microwells; read-out: RPMI-CS-1 IC50 value range
T1 construct: endogenous in cells
T1 sequence (P13612 34-1032): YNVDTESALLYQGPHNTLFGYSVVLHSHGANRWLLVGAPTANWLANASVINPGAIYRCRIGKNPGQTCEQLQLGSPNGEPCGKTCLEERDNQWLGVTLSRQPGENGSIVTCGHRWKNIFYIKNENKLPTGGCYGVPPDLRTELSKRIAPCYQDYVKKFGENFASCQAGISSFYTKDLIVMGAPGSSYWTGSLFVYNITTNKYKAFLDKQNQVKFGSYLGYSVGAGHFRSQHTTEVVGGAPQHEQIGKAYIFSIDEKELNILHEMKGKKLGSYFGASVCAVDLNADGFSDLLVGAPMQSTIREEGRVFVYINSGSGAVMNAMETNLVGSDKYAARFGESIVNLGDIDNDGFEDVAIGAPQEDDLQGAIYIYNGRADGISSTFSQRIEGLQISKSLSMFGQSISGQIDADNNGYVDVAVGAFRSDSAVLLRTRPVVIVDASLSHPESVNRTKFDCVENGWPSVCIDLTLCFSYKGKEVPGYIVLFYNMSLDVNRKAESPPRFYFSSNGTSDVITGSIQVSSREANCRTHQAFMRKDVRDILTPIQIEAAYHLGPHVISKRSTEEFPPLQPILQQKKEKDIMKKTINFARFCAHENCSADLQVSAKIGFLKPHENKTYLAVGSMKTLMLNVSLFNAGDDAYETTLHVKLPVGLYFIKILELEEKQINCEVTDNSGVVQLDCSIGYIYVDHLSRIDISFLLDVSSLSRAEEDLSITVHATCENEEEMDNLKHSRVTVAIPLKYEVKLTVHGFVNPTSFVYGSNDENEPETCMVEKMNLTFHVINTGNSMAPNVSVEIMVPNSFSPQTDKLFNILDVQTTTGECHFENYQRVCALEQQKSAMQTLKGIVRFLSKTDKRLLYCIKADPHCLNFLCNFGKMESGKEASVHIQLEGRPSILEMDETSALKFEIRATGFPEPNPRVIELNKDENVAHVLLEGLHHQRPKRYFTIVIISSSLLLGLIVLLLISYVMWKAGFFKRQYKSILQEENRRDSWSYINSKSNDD
T1 sequence (P26010 20-798): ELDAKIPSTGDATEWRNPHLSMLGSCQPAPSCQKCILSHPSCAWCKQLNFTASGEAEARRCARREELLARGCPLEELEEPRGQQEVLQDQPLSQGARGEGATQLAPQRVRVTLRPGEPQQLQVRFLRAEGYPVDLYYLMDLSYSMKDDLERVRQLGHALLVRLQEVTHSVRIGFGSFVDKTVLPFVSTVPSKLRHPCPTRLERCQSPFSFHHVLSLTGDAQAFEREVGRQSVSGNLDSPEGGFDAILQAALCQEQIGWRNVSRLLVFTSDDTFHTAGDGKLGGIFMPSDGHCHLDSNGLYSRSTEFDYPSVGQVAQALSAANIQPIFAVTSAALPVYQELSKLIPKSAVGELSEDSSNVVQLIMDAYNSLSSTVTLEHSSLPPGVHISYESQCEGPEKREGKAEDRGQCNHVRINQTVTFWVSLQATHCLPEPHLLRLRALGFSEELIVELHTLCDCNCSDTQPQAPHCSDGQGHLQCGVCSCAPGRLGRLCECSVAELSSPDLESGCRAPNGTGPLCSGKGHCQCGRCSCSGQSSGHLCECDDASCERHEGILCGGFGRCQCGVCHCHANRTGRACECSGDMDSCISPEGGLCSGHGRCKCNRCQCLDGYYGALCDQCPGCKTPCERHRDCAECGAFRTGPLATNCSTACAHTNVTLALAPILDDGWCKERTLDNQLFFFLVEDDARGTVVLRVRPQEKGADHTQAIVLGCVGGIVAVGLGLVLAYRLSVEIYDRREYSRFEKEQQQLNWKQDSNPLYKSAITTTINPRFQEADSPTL

IC50 [1] [nM]	melting point [°C]	SMILES
< 300	216 to 217	CCOC(=O)Nc1cc(C[C@H](NC(=O)c2c(Cl)cccc2Cl)C(=O)O)ccc1-c1c(OC)cccc1OC [Example 299]
< 300	162.8	COc1cc(CN2CC[S+]([O-])CC2)cc(OC)c1-c1ccc(C[C@H](NC(=O)c2c(Cl)cccc2Cl)C(=O)O)cc1 [Example 263B, N-(2,6-Dichlorobenzoyl)-4-[2,6-dimethoxy-4-(thiomorpholinomethyl)phenyl]-L-phenylalanine S-oxide]
< 300	241 to 242	COc1ccc(CN2CCOCC2)c(OC)c1-c1ccc(C[C@H](NC(=O)c2c(Cl)cccc2Cl)C(=O)O)cc1 [Example 319, N-(2,6-Dichlorobenzoyl)-4-[2,6-dimethoxy-3-(morpholinomethyl)phenyl]-L-phenylalanine]
< 300	243 to 244	COc1cc(NC(C)=O)cc(OC)c1-c1ccc(C[C@H](NC(=O)c2c(Cl)cccc2Cl)C(=O)O)cc1 [Example 159, N-(2,6-Dichlorobenzoyl)-4-(4-acetylamino-2,6-dimethoxyphenyl)-L-phenylalanine]
< 300	117.6	CCCCC(=O)c1cc(C[C@H](NC(=O)c2c(Cl)cccc2Cl)C(=O)O)ccc1-c1ccccc1OC [Example 338]
300 to 1000	167 to 168	COCCOc1ccc2c(c1-c1ccc(C[C@H](NC(=O)c3c(Cl)cccc3Cl)C(=O)O)cc1)OCO2 [Example 233, N-(2,6-Dichlorobenzoyl)-4-[2,3-methylenedioxy-6-(2-methoxyethoxy)phenyl]-L-phenylalanine]
< 300	268 to 269	COc1cc(C(=O)NCCN2CCOCC2)cc(OC)c1-c1ccc(C[C@H](NC(=O)c2c(Cl)cccc2Cl)C(=O)O)cc1 [Example 171]
< 300	194.9	COc1cc(CCN2CCCCC2)cc(OC)c1-c1ccc(C[C@H](NC(=O)c2c(Cl)cccc2Cl)C(=O)O)cc1 [Example 265, N-(2,6-Dichlorobenzoyl)-4-[2,6-dimethoxy-4-(2-piperidinoethyl)phenyl]-L-phenylalanine]
< 300	206 to 207	COc1cccc(OCCF)c1-c1ccc(C[C@H](NC(=O)c2c(Cl)cccc2Cl)C(=O)O)cc1 [Example 228, N-(2,6-Dichlorobenzoyl)-4-[6-methoxy-2-(2-fluoroethoxy)phenyl]-L-phenylalanine]
300 to 1000	114	CS(=O)(=O)Nc1ccc(C(=O)N[C@@H](Cc2ccc(-c3ccccc3C(F)(F)F)cc2)C(=O)O)c(Cl)c1 [Example 335, N-[2-Chloro-4-(methansulfonylamino)benzoyl]-4-[2-(trifluoromethyl)phenyl]-L-phenylalanine]
< 300	185 to 187	CCOC(=O)Nc1cc(Cl)c(C(=O)N[C@@H](Cc2ccc(-c3c(OC)cccc3OC)cc2)C(=O)O)c(Cl)c1 [Example 200]
< 300	227 to 229	COc1cccc(OC)c1-c1ccc(C[C@H](NC(=O)c2c(Cl)cc(NC(C)=O)cc2Cl)C(=O)O)cc1 [Example 199]
< 300	158 to 159	CCCCC(O)c1cc(C[C@H](NC(=O)c2c(Cl)cccc2Cl)C(=O)O)ccc1-c1ccccc1OC (stereo partly drawn) [Example 342]
300 to 1000	259 to 260	O=C(N[C@@H](Cc1ccc(-c2c(C(F)(F)F)cccc2C(F)(F)F)cc1)C(=O)O)c1c(Cl)cccc1Cl [Example 146]
< 300	235 to 236	COC(=O)Nc1cc(OC)c(-c2ccc(C[C@H](NC(=O)c3c(Cl)cccc3Cl)C(=O)O)cc2)c(OC)c1 [Example 158, N-(2,6-Dichlorobenzoyl)-4-(4-methoxycarbonylamino-2,6-dimethoxyphenyl)-L-phenylalanine]
